In patent publication US9072698B2, “Method for screening anti-cancer compounds inhibiting function of TM4SF5 and anti-cancer composition containing chalcone compounds” (Seoul National University Industry Foundation, priority 2006, dated 2015):
Values after ≈ are worked out from the molar mass of the structure shown.

Assays:
A-549 (lung carcinoma) = test: In vitro cytotoxicity, sulforhodamine B (SRB) method, A-549; assay type: cell-based; conditions: Homo sapiens, A549; A-549, SRB method; read-out: cytotoxicity (ED50) A-549
Method in brief: (§1)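 Cells grown in RPMI 1640 with 10% FCS at 37 °C, 5% CO2 were exposed to compounds at 30, 10, 3, 1 and 0.3 μg/ml final, with DMSO below 0.5%. Cytotoxicity was read by the standard NCI sulforhodamine B protein-staining method.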

[1] = tested on: PC-3 (prostate adenocarcinoma); test: In vitro cytotoxicity, sulforhodamine B (SRB) method, PC-3; assay type: cell-based; conditions: Homo sapiens; PC-3, SRB method; read-out: cytotoxicity (ED50) PC-3
Method in brief: as §1

[2] = tested on: tumors formed in mice implanted with TM4SF5-expressing cells (SNU449Tp); test: Tumors in nude mice implanted with TM4SF5-expressing cells, intraperitoneal TSAHC; assay type: in vivo
Protocol: Next, various SNU449 cell lines, expressing or not expressing TM4SF5, were injected into nude mice. 4-5 week-old female nude BALB/cAnNCrjBgi-nu mice (Orient. Co. Ltd), weighing about 20 g, were used. Animals were housed in sterilized cages, and given free access to sterilized water and feed. All procedures were carried out in the clean bench in which laminar flow was continuously maintained to provide a clean environment.
Nude mice were maintained under a light cycle of 12-hr light and 12-hr dark using indoor lamps, for biological cycle of day and night. Suspensions of SNU449 Cp, SNU449Tp, SNU449T16 and SNU449T16m cells were centrifuged, and the concentrated cells were counted using a hemocytometer to adjust them to a density of 1×10^7 cells/200 The prepared cells were subcutaneously injected into the flank of nude mice using a 1-ml syringe having a 26-gauge needle. Experimental animals were maintained according to the preclinical method for breeding of laboratory animals, Seoul National University, and were monitored for tumor formation by SNU449Tp cells.
The length and width of tumors formed in nude mice, prepared in Example 6, were measured one every two days using calipers. Tumor volume was calculated according to the following Equation: Volume (mm^3)=Length×Width2×½, Length: long diameter, Width: short diameter). […]

SNU449Tp cells [3] = test: Immunofluorescent staining for E-cadherin and β-catenin, cell-cell contact (FIG. 45); assay type: cell-based, human; conditions: 20 μM
Protocol: (§2) When cells were transfected with given specific genes or infected with various viruses, they were used after being cultured for a given period of time. Cells treated with 10 mM lysophosphatidic acid (LPA) were used 1 hour after being attached to cover glasses. Immunofluorescent staining was carried out by preparing a slide for fluorescent analysis through incubation with a primary antibody against a target protein, washing out unbound antibody molecules, incubation with a fluorescein-conjugated secondary antibody and washing out unbound antibody molecules, and actin filament staininh was carried out with rhodamine-conjugated phalloidin. Antibodies used included antibodies against E-cadherin, β-catenin, FLAG, 4′-6-diamidino-2-phenylindole (DAPI), 5-brorno-2′-deoxy-uridine (BrdU), p27^kip1, ZO1 (zonula occludens-1), and the like. Immunofluorescent stained cover glasses were placed on slides and observed under a fluorescence microscope or a confocal laser scanning microscope.

TM4SF5-expressing cells = test: Immunostaining for DNA and the actin cytoskeleton, cell shape (FIG. 49); assay type: cell-based, human
Protocol: as §2

SNU449Tp cells [4] = test: Transwell chamber cell migration (FIG. 65); assay type: cell-based, human; conditions: 20 μM, 18 hrs
Protocol: Cell migration was examined using Boyden Transwell chamber 24 well plates (Costar, Cambridge, Mass.). SNU449 Cp and SNU449Tp cells were placed in a chamber on a polycarbonate filter (8 μm porosity) at a density of 5×10^4 cells/well, and cultured in serum-free RPMI (Roswell Park Memorial Institute) media in an incubator at 37° C. under 5% CO2 for 24 hrs. Then, cells on the upper surface of the membrane of the insert chamber were completely removed by wiping with a cotton swab. Cells on the lower side of the membrane were fixed with 70% methanol for about 7 min.
SNU449 Cp cells and SNU449Tp cells were plated onto 6-well plates and cultured for 24 hrs. Cells were then treated with 20 μM of TSAHC to culture for 18 hrs. Cells were transferred into insert wells of the Transwell chamber. After 18 hrs, migrated cells were fixed, stained, and observed under an optical microscope. Cells were counted, and the results were expressed as a graph (FIG. 65).

SNU449Tp cells [5] = test: Invasion into collagen gel, microcarrier beads (FIG. 66); assay type: cell-based, human; conditions: 20 μM, 18 hrs
Protocol: Cell invasiveness was analyzed using Cytodex-3 microcarriers. SNU449 Cp and SNU449Tp cells were grown on microcarrier beads in an attached state, and cultured in a collagen gel matrix, including a serum-containing medium at 37° C.
SNU449 Cp cells and SNU449Tp cells were allowed to attach to microcarrier beads, and cultured in the presence of 20 μM of TSAHC for 18 hrs. Bead-cells were cultured in a collagen gel matrix, including a serum-containing medium, and observed for invasion into the collagen gel at given time points.

## Cc1ccc(S(=O)(=O)Nc2ccc(C(=O)/C=C/c3ccc(O)cc3)cc2)cc1 [Compound 1, 4′-(p-toluenesulfonylamino)-4-hydroxychalcone]
A-549 (lung carcinoma)
  IC50: 38 µg/mL (≈ 96.6 µM)
[1]
  IC50: 37 µg/mL (≈ 94 µM)
[2]; 5 mg/kg intraperitoneally once every two days for three weeks
  tumor size decreased by: 45%
[2]; 50 mg/kg intraperitoneally once every two days for three weeks
  tumor size decreased by: 88%
SNU449Tp cells [3]
  cell-cell contact: restored cell-cell contact
TM4SF5-expressing cells
  cell shape: returned the elongated cell shape to the same polygonal shape as that of TM4SF5-null control cells
SNU449Tp cells [4]
  TM4SF5-mediated cell migration: inhibit TM4SF5-mediated cell migration
SNU449Tp cells [5]
  TM4SF5-mediated cell invasion into collagen gel: inhibit TM4SF5-mediated cell invasion into collagen gel
